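Tested at 5 concentrations; 48 h exposure; 96-well plates; endpoints linearly interpolated, else capped at highest concentration. At the TGI there is no net growth.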
Experiments:
Assay in all cases: inhibition of tumour cell growth, NCI panel, 48 h
[1] = system: SNB-19 CNS
[2] = system: SNB-75 CNS
[3] = system: RPMI-8226 leukemia
[4] = system: UACC-257 melanoma
[5] = system: NCI-H226 lung
[6] = system: NCI/ADR-RES ovarian
[7] = system: MDA-N
[8] = system: UO-31 renal
[9] = system: MDA-MB-435
[10] = system: SN12C renal
[11] = system: TK-10 renal
[12] = system: K-562 leukemia
[13] = system: HOP-62 NSCLC
[14] = system: A549 NSCLC
[15] = system: UACC-62 melanoma
[16] = system: SK-OV-3 ovarian
[17] = system: NCI-H522 lung

| SMILES | TGI [1] | TGI [2] | TGI [3] | TGI [4] | TGI [5] | TGI [6] | TGI [7] | TGI [8] | TGI [9] | TGI [10] | TGI [11] | TGI [12] | TGI [13] | TGI [14] | TGI [15] | TGI [16] | TGI [17] |
| --- | --- | --- | --- | --- | --- | --- | --- | --- | --- | --- | --- | --- | --- | --- | --- | --- | --- |
| CC1C[C@]2(C)C(=O)Nc3ccccc3[C@@H]2Nc2ccccc21 (some centres undefined) | > 100 µM | > 100 µM | 59.5 µM | 39.5 µM | 76.1 µM | 46.5 µM | > 100 µM | > 100 µM | 55.5 µM | 37.6 µM | 58 µM | > 100 µM | 57.4 µM | > 100 µM | 45.3 µM |  |  |
| COc1ccc(N2C(=O)CS(=O)(=O)C2c2cccc(Oc3ccccc3)c2)cc1 (centres undefined) | > 100 µM | 45.2 µM |  | 10.9 µM | 52.6 µM | 15.4 µM |  | 71.3 µM | 7.08 µM | 21.4 µM | 8.46 µM | 8.44 µM | > 100 µM | > 100 µM | 6.25 µM | > 100 µM | 13.8 µM |
| CC#C[P+](c1ccccc1)(c1ccccc1)c1ccccc1 | 15 µM | 12 µM |  | 9.59 µM | 14.2 µM |  |  | 76.4 µM |  | 4.13 µM | 15.7 µM | 11.8 µM | 17.4 µM | > 100 µM | 14.8 µM | 38.5 µM | 0.924 µM |
| CSc1ncnc2c1cnn2CCCCO | > 100 µM |  | > 100 µM | > 100 µM | > 100 µM |  | > 100 µM | > 100 µM | > 100 µM | > 100 µM | > 100 µM | > 100 µM | > 100 µM | > 100 µM | > 100 µM | > 100 µM | > 100 µM |
| CCSc1[nH]c(Nc2nc(-c3ccccc3)n(-c3ccccc3)n2)c(C(N)=O)c1C(N)=O |  | > 10 µM | > 10 µM | > 10 µM |  |  | > 10 µM |  | > 10 µM | > 10 µM | > 10 µM | > 10 µM | > 10 µM | > 10 µM | > 10 µM | > 10 µM |  |
| O=C(NS(=O)(=O)OCC(Cl)(Cl)Cl)SCCC(F)(F)C(F)(F)C(F)(F)C(F)(F)C(F)(F)C(F)(F)F | 36.2 µM | 64.6 µM | 40.5 µM | > 100 µM | 70.7 µM | 48.1 µM |  | > 100 µM | 55 µM | > 100 µM | 62.6 µM | > 100 µM | 72.4 µM | 94.6 µM | 40.6 µM | 32.1 µM | 41.8 µM |
| CC12CC(C#N)(C#N)C(C#N)(CO1)C(=N)O2 (centres undefined) | > 100 µM | > 100 µM |  | > 100 µM | > 100 µM | > 100 µM | > 100 µM | > 100 µM | > 100 µM | > 100 µM | > 100 µM | > 100 µM |  | > 100 µM | > 100 µM | > 100 µM |  |
| CC(CCC#N)(CCC#N)C(=O)CC(O)(C(F)(F)F)C(F)(F)F | 53 µM | 34.5 µM |  | 21.1 µM | 45.3 µM | 22.7 µM | 4.88 µM | 13.1 µM | 72.7 µM | 23.5 µM | 25.1 µM | 5.87 µM | 38.7 µM | 30.1 µM | 19.8 µM | > 100 µM |  |
| CN(CCN(C)C(=S)NN)C(=S)NN | > 100 µM | > 100 µM | > 100 µM | > 100 µM |  |  | > 100 µM | > 100 µM | > 100 µM | > 100 µM |  |  | > 100 µM | > 100 µM | > 100 µM | > 100 µM | > 100 µM |
| CCOC(=O)c1cc(C2(O)CCN(CC(C)CC)C2=O)c(-c2cc(C)no2)[nH]1 (centres undefined) | > 100 µM | > 100 µM | > 100 µM | > 100 µM | > 100 µM | > 100 µM | > 100 µM | > 100 µM | > 100 µM | > 100 µM |  | > 100 µM | > 100 µM | > 100 µM | > 100 µM | > 100 µM |  |
| N#CC1(C#N)C2CCCCC23OC(=N)C1(C#N)C(c1ccccc1)O3 (centres undefined) | > 100 µM | 11.7 µM |  | 37.3 µM | > 100 µM | > 100 µM | 27.9 µM | > 100 µM | 83.6 µM | 26.7 µM | 37.6 µM | > 100 µM |  | > 100 µM | 49.4 µM | > 100 µM |  |
| CC(C)(C)c1cc(C(=O)/C=C/C=C/c2ccccc2)cc(C(C)(C)C)c1O | 77.8 µM | 67.2 µM | 29.9 µM | 25.4 µM | 77.2 µM | 30.5 µM |  | > 77.3 µM | > 70.4 µM | 77.3 µM | 59.2 µM | > 100 µM | > 100 µM | 47.3 µM | > 71.4 µM | > 100 µM | 52.5 µM |
| Oc1ccc(-c2nc(-c3ccc(F)cc3)c(-c3ccc4ccccc4n3)[nH]2)cc1 | 37.1 µM | 41.6 µM | > 100 µM | 26.3 µM | 28.6 µM | 20.5 µM | 27.9 µM | 26.1 µM | 29.6 µM | 32.1 µM | 26 µM | > 100 µM | 33.4 µM | 27 µM | 23.6 µM | 30.7 µM |  |
| CC(=O)Nc1ccc(-c2nc3ccccc3s2)cc1 | > 100 µM | 90.9 µM | > 100 µM | > 100 µM | > 100 µM | > 100 µM |  | > 100 µM | > 100 µM |  | > 100 µM | 77 µM | 45.8 µM |  | > 100 µM | 59.5 µM |  |
| COc1ccc(/C=N/n2c(-c3ccccc3)n[nH]c2=O)cc1 | > 100 µM | > 100 µM | > 100 µM | > 100 µM | > 100 µM | > 100 µM | > 100 µM | > 100 µM | > 100 µM | > 100 µM |  | > 100 µM | > 100 µM | > 100 µM | > 100 µM | > 100 µM |  |
| COc1ccc(CCN=C2OCc3ccccc32)cc1OC | > 100 µM | > 100 µM |  | > 100 µM | > 100 µM | > 100 µM | > 100 µM | > 100 µM | > 100 µM | > 100 µM | > 100 µM | > 100 µM |  | > 100 µM | > 100 µM | > 100 µM |  |
| C#CCN(CC#C)C(=O)C(=O)c1c[nH]c2ccc(OC)cc12 | 36.1 µM | 55.1 µM | 22.4 µM | 34 µM | 38.7 µM | 57.7 µM |  | 21.1 µM | 35.4 µM | 30 µM | 34.3 µM | 33.9 µM | 31.3 µM | 68.5 µM | 42.7 µM | 36.5 µM |  |
| CCOC(=O)c1ccc(NC(=O)O/N=C(/Cl)CCl)cc1 | > 100 µM | > 100 µM | > 100 µM | > 100 µM |  | > 100 µM | > 100 µM | > 100 µM |  | > 100 µM | > 100 µM | > 100 µM | > 100 µM | > 100 µM |  | > 100 µM |  |
| CC(C)(C)NC(=O)N1N=C(c2ccccc2)C1c1ccccc1 (centres undefined) | > 100 µM | > 100 µM | 46 µM | > 100 µM | > 100 µM | > 100 µM | > 100 µM | 63.1 µM |  | > 100 µM | > 100 µM |  |  | > 100 µM | > 100 µM | > 100 µM | 35.5 µM |
| COC(=O)C1C=CN(N(C)C)C2=C1C(=O)c1c(O)cccc1C2=O (centres undefined) | 5.58 µM | 3.19 µM | 5.97 µM | 2.8 µM | 3.94 µM | 6.47 µM |  | 15.8 µM |  | 3.95 µM | 15 µM | 52.1 µM | 8.42 µM | 6.44 µM | 2.37 µM | 22.7 µM | 5.95 µM |
| O=C(O)CCN(CCC(=O)O)c1ccc(/C=C2\SC(=S)NC2=O)cc1 | > 100 µM | > 100 µM | > 100 µM | > 100 µM | > 100 µM | > 100 µM |  | > 100 µM | > 100 µM | > 100 µM | > 100 µM | > 100 µM | > 100 µM | > 100 µM | > 100 µM | > 100 µM | > 100 µM |
| O=P(O)(Cc1ccccc1)c1ccccc1-c1ccccc1 | > 100 µM | > 100 µM |  | > 100 µM | > 100 µM | > 100 µM | > 100 µM | > 100 µM |  | > 100 µM | > 100 µM | > 100 µM | > 100 µM | > 100 µM | > 100 µM | > 100 µM | > 100 µM |
| CC(=O)OC1O[C@@H](C(C)(C)O)CC[C@@H]1[C@H]1CC[C@@]2(C)C3=C(CC[C@]12C)[C@@]1(C)C[C@@H](OC(=O)CC(C)(O)CC(=O)O)[C@H](OC(C)=O)C(C)(C)C1CC3 (some centres undefined) | 34.6 µM |  | 53.8 µM | 31.7 µM | 49.6 µM | 33.7 µM | 34.4 µM | 29.4 µM | 31.4 µM | 36.2 µM | 33.2 µM | 89.1 µM | 35.4 µM | 30.9 µM | 72.4 µM | 38.7 µM |  |
| O=C(NC(CO)Cc1ccc(Oc2cc(CC(CO)NC(=O)OCc3ccccc3)ccc2OC(=O)OCc2ccccc2)cc1)OCc1ccccc1 (centres undefined) | > 100 µM | 51.1 µM | 31 µM | 29 µM | 40.7 µM | > 100 µM | 50.3 µM | > 100 µM | 45 µM | > 100 µM | 54.1 µM | 46.7 µM | 52.6 µM | > 100 µM |  | 69.8 µM |  |
